Laboratory results: patent US20240016784A1, “Y BOX BINDING PROTEIN 1 INHIBITORS” (Oregon Health & Science University, priority 2020, published 2024)

Key:
[1] = Liver microsomes metabolic profiling; format: in vitro ADME
Description: FIGS. 15A-15E. […] SU056 treatment at increasing concentrations dose not challenge the dietary behavior as reflected by change in body weight FIG. 15A) Mice and FIG. 15B) Rat. […] Liver microsomes were used for the purpose of metabolic profiling.

Pharmacokinetics study = format: in vivo; settings: injection of 20 mg/kg, intraperitoneal, mouse
Procedure: In a pharmacokinetics study in vivo, injection of 20 mg/kg SU056 led to a maximum serum concentration of 28.19 μg/mL with a T1/2 of ˜45 min. We then tested the synergism of paclitaxel and SU056 co-treatment in vivo in NOD-SCID mice implanted with OVCAR8 OC tumors as described above. Mice were given daily treatment of SU056 (10 mg/kg) and weekly treatment of paclitaxel (5 mg/kg) were administered intraperitoneally. […] This likely resulted from decreased paclitaxel efflux from OVCAR8 cells in the presence of SU056.
Pharmacokinetics study: SU056 Plasma concentration was determined by mass quantification analysis using an Agilent 6490 Funnel triple quadrupole (QQQ) mass spectrometer equipped with an Agilent 1290 infinity II UHPLC. An analytical C18 column, ZORBAX C18 (Eclipse Plus, 2.1×50 mm, 1.8 μm particle size) was used. The mobile phase was composed of 60% water buffered with 0.1% formic acid and 4 mM ammonium formate and 40% acetonitrile buffered with 0.1% formic acid. […] The precursor ion [M+H]+ and product ion for SU056 were monitored at m/z 370.0 and m/z 274.2, respectively. And the precursor ion [M+H]+ and product ion for IS were monitored at m/z 338.1 and m/z 260, respectively. […]
FIG. 10: Pharmacokinetics of SU056. […] After injection plasma was collected at respective time point and was analyzed using LC MS/MS as described in method.

[2] = tested on: OVCAR8 and SKOV-3 OC cell lines; assay: MTT combination study of SU056 and paclitaxel; format: cell-based, human; settings: paclitaxel at 0.1, 0.5, and 1 nM doses
Procedure: Cell viability assay: Cell viability was assessed using the standard MTT assay protocol. In brief, 5,000 cells were plated in each well of 96 well plates (Corning-Costar, #3598) and allowed to attach for 24 h. Cells were treated with a respective concentration of compounds for respective time points. A stock solution of each compound was prepared in DMSO. DMSO concentration was kept constant and maintained below 0.1%. After each incubation, 50 μL of 0.5 mg/ml MTT solution prepared in 1×PBS was added to each well followed by 1 h incubation at 37° C. and 5% CO2. MTT solution and media were then removed, and MTT formazan crystals were dissolved in 100 μL of DMSO per well. Absorbance at 570 nm for each well was recorded using a multimode plate reader to quantitate MTT crystallization. Each absorbance value was normalized to controls and converted into percent cell viability.
Combination index calculation: The combination index (CI) for paclitaxel and SU093 or SU056 was calculated using the Chou-Talalay Method (Chou, 2010). CI values were computed via CampuSyn software. CI<1, CI=1, and CI>1 indicate the synergistic, additive and antagonistic effect of the combination.
Combination index values for paclitaxel and SU056. […] Scale bar, 250 μm FIG. 7E) Spheroid formation was quantified after 7 days of incubation. […] Tumor sections were stained with Ki67, and slides were scored for K167 staining. […]

4T1 tumor xenograft = assay: 4T1 tumor xenograft; format: in vivo, BALB/c mice; settings: SU056 50 mg/kg, oral gavage
Procedure: Mice were subcutaneously injected with 4T1 cells and drug treatment started after three day of implantation. Mice were given either vehicle (40% PEG in saline) or SU056 (50 mg/kg) through oral route using oral gavage. FIG. 14A) Tumor volume (4T1) as a function of time. FIG. 14B) Tumor weight (4T1) at the end of the study. FIG. 14C) Body weight (4T1) as a function of time. FIG. 14D) Representative images of tumor (4T1) at the end of study. Combination of Paclitaxel and SU056 in 4T1 xenograft model. FIG. 14E) Tumor volume (4T1) as a function of time. FIG. 14F) Tumor weight (4T1) at the end of the study. FIG. 14G) Body weight (4T1) as a function of time.

[3] = tested on: MDA-MB-231, MDA-MB-468 and SUM 159 cells; assay: Cell cycle distribution in TNBC cells (flow cytometry); format: cell-based; settings: 12 and 24 hr
Procedure: FIG. 11A). The growth inhibitory effect of SU056 was evaluated using MTT assay. TNBC cell lines (MDA-MB-231, MDA-MB-468, SUM159, 4T1, E0771 and EMT6) were plated in 96 well plate. Next day, treated with vehicle (DMSO) alone or 0.005-50 μM of SU056 in fresh medium. After 48 hr of treatments, cell viability was measured using MTT assay. FIG. 11B). A total of 300-600 cells were plated per well of a 12-well plate and allowed to attach for 24 hr. […] Representative colony formations from respective wells of cell. FIG. 11C) Number of colonies formed after SU056 treatment. FIG. 11D) Effect of SU056 on cell cycle distribution in TNBC cells. MDA-MB-231, MDA-MB-468 and SUM 159 cells were treated with vehicle or SU056 for 12 and 24 hr. At the end of treatment, cells were collected and analysed using flow cytometry. […] SU056 induces level of phosphor-Histone H3 in cells at 12 and 24 hr.

[4] = tested on: protein translation associated molecules; assay: Western blot of translation associated molecules in TNBC cells; format: cell-based; settings: 12 and 24 hr; MDA-MB-231, MDA-MB-468, SUM 159
Procedure: FIGS. 12A-12C. TNBC cells were treated for 12 and 24 hr and total cell lysate were prepared. SDS-PAGE and western blot analyses were performed for translation associated molecules. Beta-actin were probed to ensure equal protein loading.

## O=C1OCC2=C1C(c1cccc(F)c1)c1cc3c(cc1N2CCO)OCO3 (stereo not shown) [SU056, 9-(3-fluorophenyl)-5-(2-hydroxyethyl)-6,9-dihydro-[1,3]dioxolo[4,5-g]furo[3,4-b]quinolin-8(5H)-one]
[1]
  half-life: 40 min
Pharmacokinetics study
  maximum serum concentration: 28.19 µg/mL
Pharmacokinetics study; plasma, ip
  half-life: ~45 min
[2]
  effect on cytotoxic effects of paclitaxel (MTT): significantly potentiates the cytotoxic effects of paclitaxel
4T1 tumor xenograft
  4T1 tumor xenograft growth: inhibit 4T1 tumor xenograft
[3]
  cell cycle distribution in TNBC cells: G2/M phase arrest
[4]
  protein translation associated molecules (western blot): inhibited the protein translation associated molecules
